Patent publication US10028992B2, “Methods of treating muscular dystrophy” (BOARD OF REGENTS OF THE NEVADA SYSTEM OF HIGHER EDUCATION …, priority 2012, dated 2018)

Test system: α7 integrin promoter
Assay: muscle cell-based assay: α7βgal+/− myoblasts/myotubes, LacZ reporter, β-galactosidase cleavage of FDG
Set-up: species or system mouse; Results in α7+/− β-galactosidase assay: scale not given here
Settings: Myoblasts
Outline: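 Fluorescein generated from FDG by β-galactosidase reports α7 integrin promoter activity in differentiated myoblasts from α7+/− LacZ knock-in pups. Screening hits then went to dose-response, western blotting and a myostatin counterscreen.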

| Compound | Results in α7+/− β-galactosidase assay (0.5 uM) | Results in α7+/− β-galactosidase assay (1 uM) | Results in α7+/− β-galactosidase assay (5 uM) | Results in α7+/− β-galactosidase assay (10 uM) | Results in α7+/− β-galactosidase assay (20 uM) | Results in α7+/− β-galactosidase assay (40 uM) |
| --- | --- | --- | --- | --- | --- | --- |
| CC(C)Oc1ccc(C(=O)/C=C2\C(=O)Nc3ccccc32)cc1 [drawing 531] | 0.3276 | 0.2225 | −0.3766 | −0.6765 | −0.7978 | −0.9731 |
| COc1ccc(NC(=O)C2(N(C(=O)Cn3nnnc3N)c3ccc(OC)cc3)CCCCC2)cc1 [drawing 532] | 0.2391 | 0.1433 | 0.4897 | −0.1284 | −0.274 | −0.3931 |
| COc1ccc(CCNC(=O)Cn2nnc(C(=O)Nc3ccc(Br)cc3)c2N)cc1OC [drawing 533] | 0.1152 | 0.03848 | −0.06784 | −0.0702 | −0.3276 | −0.5608 |
| CC1(C)Cc2c(cnn2-c2cccc(F)c2)C(NC(=O)CCc2cnccn2)C1 (stereo not drawn) [drawing 534] | 0.2096 | 0.1101 | −0.01619 | −0.03841 | 0.02411 | −0.09429 |
| O=C1Nc2ccccc2/C1=C/c1cccnc1 [drawing 535] | 0.259 | 0.1621 | −0.1077 | −0.235 | −0.5331 | −0.7528 |
| CNC(=O)CSc1nnc(-c2ccc3c(c2)OCO3)n1C [drawing 536] | 0.1583 | 0.04195 | 0.03203 | 0.03846 | −0.04001 | −0.01341 |
| Cc1ccccc1NC(=O)NCCCN1CCN(C)CC1 [drawing 537] | 0.06224 | 0.06912 | 0.01544 | −0.04766 | 0.09447 | 0.1887 |
| CC1(C)Cc2c(c(N3CCOCC3)nc3sc(C(=O)Nc4ccccc4)c(N)c23)CO1 [drawing 538] | 0.2085 | 0.2916 | −0.3961 | −0.7131 | −0.4322 | −0.3536 |
| COc1ccc(N2CCN(C(=O)c3cc(C)on3)CC2)cc1 [drawing 539] | 0.06118 | 0.157 | 0.07966 | 0.01243 | 0.1011 | 0.07367 |
| CCOn1c(=O)c(-c2ccccc2)[n+]([O-])c2ccccc21 [drawing 540] | 0.2811 | 0.2862 | 0.8432 | −0.07816 | 0.1113 | 0.0836 |
| O=S(=O)(N/C(=N/C1CCCCC1)c1ccccc1F)c1ccccc1 [drawing 542] | 0.02381 | 0.1877 | 0.03277 | 0.0429 | 0.04651 | 0.01846 |
| CCCCNc1nnc(Cc2ccc(Cl)cc2)c(O)n1 [drawing 543] | 0.1426 | 0.2067 | −0.06804 | −0.2224 | −0.259 | −0.2813 |
| CC(C)CN(C(=O)c1cccc(Cl)c1)c1c(N)n(Cc2ccccc2)c(=O)[nH]c1=O [drawing 544] | 0.1169 | 0.2337 | 0.01239 | −0.05318 | −0.1028 | −0.2221 |
| Cc1nc(O)nc(O)c1S(=O)(=O)Nc1ccc(F)cc1Cl [drawing 545] | 0.03945 | 0.1557 | 0.0782 | −0.00196 | 0.02136 | −0.01244 |
